Measurements taken from PubChem BioAssay (NCI).
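Method: 48-hour compound exposure of cells in 96-well plates, five concentrations, linear interpolation of endpoints. The concentration for 50% growth inhibition is given as GI50. Definition used: TGI = concentration required for complete inhibition of growth.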

Columns and labels:
Test in all cases: NCI anticancer screen, dose series, 48 h
A549 NSCLC = test system: A549 NSCLC
ACHN renal = test system: ACHN renal
BT-549 breast = test system: BT-549 breast
CAKI-1 renal = test system: CAKI-1 renal
CCRF-CEM leukemia = test system: CCRF-CEM leukemia
COLO 205 colon = test system: COLO 205 colon
DU-145 prostate = test system: DU-145 prostate
EKVX NSCLC = test system: EKVX NSCLC
HCT-15 colon = test system: HCT-15 colon
HL-60(TB) leukemia = test system: HL-60(TB) leukemia
HOP-92 NSCLC = test system: HOP-92 NSCLC
HT29 colon = test system: HT29 colon
IGROV1 ovarian = test system: IGROV1 ovarian
K-562 leukemia = test system: K-562 leukemia
KM12 colon = test system: KM12 colon
LOX IMVI melanoma = test system: LOX IMVI melanoma
MALME-3M melanoma = test system: MALME-3M melanoma
MCF7 breast = test system: MCF7 breast
MDA-MB-231 breast = test system: MDA-MB-231 breast
MDA-MB-435 = test system: MDA-MB-435
MOLT-4 leukemia = test system: MOLT-4 leukemia
NCI-H23 lung = test system: NCI-H23 lung
NCI-H460 lung = test system: NCI-H460 lung
OVCAR-3 ovarian = test system: OVCAR-3 ovarian
OVCAR-4 ovarian = test system: OVCAR-4 ovarian
OVCAR-8 ovarian = test system: OVCAR-8 ovarian
PC-3 prostate = test system: PC-3 prostate
RPMI-8226 leukemia = test system: RPMI-8226 leukemia
RXF 393 renal = test system: RXF 393 renal
SF-268 CNS = test system: SF-268 CNS
SF-295 CNS = test system: SF-295 CNS
SF-539 CNS = test system: SF-539 CNS
SK-MEL-2 melanoma = test system: SK-MEL-2 melanoma
SK-MEL-28 melanoma = test system: SK-MEL-28 melanoma
SK-MEL-5 melanoma = test system: SK-MEL-5 melanoma
SK-OV-3 ovarian = test system: SK-OV-3 ovarian
SN12C renal = test system: SN12C renal
SNB-19 CNS = test system: SNB-19 CNS
SNB-75 CNS = test system: SNB-75 CNS
SW-620 colon = test system: SW-620 colon
T-47D breast = test system: T-47D breast
TK-10 renal = test system: TK-10 renal
U251 CNS = test system: U251 CNS
UACC-62 melanoma = test system: UACC-62 melanoma
UO-31 renal = test system: UO-31 renal

## N#CC(C#N)=CN1CCN(C(=O)c2ccco2)C1=S
A549 NSCLC
  GI50: 13.5 µM
  TGI: 47.7 µM
ACHN renal
  GI50: 9.4 µM
  TGI: 50.5 µM
BT-549 breast
  GI50: 6.85 µM
  TGI: 54.6 µM
CAKI-1 renal
  GI50: 4.76 µM
  TGI: 30.5 µM
CCRF-CEM leukemia
  GI50: 79.7 µM
  TGI: > 100 µM
COLO 205 colon
  GI50: 16.5 µM
  TGI: 70.5 µM
DU-145 prostate
  GI50: 5.46 µM
  TGI: > 100 µM
EKVX NSCLC
  GI50: 11.9 µM
  TGI: 71.5 µM
HCT-15 colon
  GI50: 5.23 µM
  TGI: > 100 µM
HL-60(TB) leukemia
  GI50: 19.8 µM
  TGI: 58.1 µM
HOP-92 NSCLC
  GI50: 22.4 µM
  TGI: > 100 µM
HT29 colon
  GI50: 27.7 µM
  TGI: > 100 µM
IGROV1 ovarian
  GI50: 6.61 µM
  TGI: 38.9 µM
K-562 leukemia
  GI50: 6.57 µM
  TGI: > 100 µM
KM12 colon
  GI50: 4.12 µM
  TGI: 32.2 µM
LOX IMVI melanoma
  GI50: 3.34 µM
  TGI: > 100 µM
MALME-3M melanoma
  GI50: 47.8 µM
  TGI: > 100 µM
MCF7 breast
  GI50: 3.45 µM
  TGI: 28.4 µM
MDA-MB-231 breast
  GI50: 2.92 µM
  TGI: 17.3 µM
MDA-MB-435
  GI50: 5.28 µM
  TGI: 40 µM
MOLT-4 leukemia
  GI50: 5.22 µM
  TGI: > 100 µM
NCI-H23 lung
  GI50: 5.78 µM
  TGI: 22.5 µM
NCI-H460 lung
  GI50: 3.29 µM
  TGI: > 100 µM
OVCAR-3 ovarian
  GI50: 11.2 µM
  TGI: > 100 µM
OVCAR-4 ovarian
  GI50: 20.1 µM
  TGI: 46 µM
OVCAR-8 ovarian
  GI50: 14.6 µM
  TGI: > 100 µM
PC-3 prostate
  GI50: 17.3 µM
  TGI: > 100 µM
RPMI-8226 leukemia
  GI50: 4.53 µM
  TGI: > 100 µM
RXF 393 renal
  GI50: 2.63 µM
  TGI: 6.6 µM
SF-268 CNS
  GI50: 31.4 µM
  TGI: 89.4 µM
SF-295 CNS
  GI50: 31.3 µM
  TGI: > 100 µM
SF-539 CNS
  GI50: 2.48 µM
  TGI: 7.55 µM
SK-MEL-2 melanoma
  GI50: 4.28 µM
  TGI: 12.8 µM
SK-MEL-28 melanoma
  GI50: 12.5 µM
  TGI: > 100 µM
SK-MEL-5 melanoma
  GI50: 2.87 µM
  TGI: 8.07 µM
SK-OV-3 ovarian
  GI50: 33.1 µM
  TGI: 86.5 µM
SN12C renal
  GI50: 3.12 µM
  TGI: 16.5 µM
SNB-19 CNS
  GI50: 38.7 µM
  TGI: 82 µM
SNB-75 CNS
  GI50: 40.6 µM
  TGI: > 100 µM
SW-620 colon
  GI50: 5.62 µM
  TGI: > 100 µM
T-47D breast
  GI50: 21.2 µM
  TGI: > 100 µM
TK-10 renal
  GI50: 4.62 µM
  TGI: 32.7 µM
U251 CNS
  GI50: 6.54 µM
  TGI: > 100 µM
UACC-62 melanoma
  GI50: 8.81 µM
  TGI: 25.4 µM
UO-31 renal
  GI50: 10.5 µM
  TGI: 30.1 µM
